Reference: patent publication US7326542B2, “Compositions and methods for regulating bacterial pathogenesis” (priority 1998, dated 2008)
Where two headings read alike, the source gives them in different places.

Tests used:
[1] = tested on: V. harveyi reporter strain BB170 (Sensor 1-, Sensor 2+); assay type: cell-based, Vibrio harveyi
Protocol: Cell-free culture fluids from E. coli, S. typhimurium and V. harveyi strains were tested for the presence of signaling substances that could induce luminescence in the V. harveyi reporter strain BB170 or BB886. […] The microtiter dishes were shaken in a rotary shaker at 175 rpm at 30° C.
The cell density was measured by diluting the same aliquots of cells used for measuring luminescence, spreading the dilutions onto solid LM medium, incubating the plates overnight at 30° C., and counting the resulting colonies the following day. […] Cell-free culture supernatants from V. harveyi or S. typhimurium strains were added to a final concentration of 10% (v/v) at the time of the first measurement. In control experiments, 10% (v/v) of AB medium, LB medium or LB medium containing 0.5% glucose was added instead of cell-free culture fluids.

[2] = tested on: V. harveyi reporter strain BB886 (Sensor 1+, Sensor 2-); assay: V. harveyi BB886 luminescence bioassay (AI-1 / Signaling System 1); assay type: cell-based, Vibrio harveyi; conditions: non self-stimulating sensor-1+, sensor-2- mutant (BB886)
Protocol: Assay for production of signaling compounds. Cell-free culture fluids from E. coli, S. typhimurium and V. harveyi strains were tested for the presence of signaling substances that could induce luminescence in the V. harveyi reporter strain BB170 or BB886. In the assays, 10 1 of cell-free culture fluids from E. coli AB1157, E. coli DH5, and S. typhimurium LT2 strains grown and harvested as described above were added to 96-well microtiter dishes. The V. harveyi reporter strain BB170 or BB886 was grown for 16 h at 30° C. with aeration in AB medium, diluted 1:5000 into fresh AB medium, and 90 1 of the diluted cells were added to the wells containing the E. coli and S. typhimurium cell-free culture fluids. Positive control wells contained 10 1 of cell-free culture fluid from strain V. harveyi BB152 (Autoinducer-1^−, Autoinducer-2^+) or V. harveyi BB 120 (Autoinducer-1^+, Autoinducer-2^+). Negative control wells contained 10 1 of sterile growth medium. […] Every hour, light production was measured using a Wallac Model 1450 Microbeta Plus liquid scintillation counter in the chemiluminescence mode. The V. harveyi cell density was measured by diluting the same aliquots of cells used for measuring luminescence, spreading the dilutions onto solid LM medium (Bassler et al., 1993, supra), incubating the plates overnight at 30C., and counting the resulting colonies the following day. […]

[3] = tested on: V. harveyi luxN, luxS double mutant reporter strain; assay: V. harveyi luxN, luxS double mutant reporter strain luminescence assay; assay type: cell-based, Vibrio harveyi; conditions: AI-1 from MM30 and AI-2 from BB152 culture fluids
Protocol: Verification that the luxN, luxS Double Mutant Responds to AI-2. […] This was verified in a luminescence assay for response to V. harveyi AI-1 and AI-2. V. harveyi strain MM30 (luxS::Tn5) which is phenotypically AI-1^+, AI-2^−, and V. harveyi strain BB152 (luxM::Tn5) which is phenotypically AI-1^−, AI-2^+ were used as the sources of AI-1 and AI-2 respectively. The AI-1 and AI-2 present in culture fluids of these strains was tested for stimulation of light production of the V. harveyi luxN, luxS double mutant reporter strain. In this assay, autoinducer preparations from MM30, BB152 or sterile medium controls were added to the wells of microtiter plates, followed by the addition of the V. harveyi reporter strain. The resulting light production was monitored using a liquid scintillation counter in the chemiluminescence mode. Maximal stimulation of light production in the V. harveyi luxN, luxS reporter strain was compared to that produced by the Sensor 1^+, Sensor 2^− V. harveyi strain BB886 and the Sensor 1^−, Sensor 2^+ V. harveyi strain BB170. These two V. harveyi strains are routinely used in this assay as reporters of AI-1 and AI-2 activity respectively.

[4] = tested on: ftsQ1p2p-lacZ fusion in E. coli MC4100/pMS207; assay: SdiA regulated ftsQ1p2p-lacZ reporter, galactosidase; assay type: cell-based; conditions: 10% (v/v) 0.4 M NaCl osmotic shock fluids containing AI-2 activity, 2 h
Description: Analysis of the effect of autoinducer on SdiA regulated gene expression. A sequence that includes the ftsQ1p and ftsQ2p promoters (Wang et al., 1991, supra) was amplified from E. coli MG1655 chromosomal DNA using the following primers: ftsQ1p, 5′-[…]-3′ (SEQ ID NO: 19); ftsQ2p, 5′-[…]-3′ (SEQ ID NO: 20). The amplified product contained both the ftsQ promoters and the first 14 codons of the ftsQ gene flanked by BamHI and Bg1II sites. The ftsQ1p2p PCR product was cloned into the BamHI site of vector pMLB 1034 (Silhavy et al., Experiments with Gene Fusions, Cold Spring Harbor Press, 1984) to generate a lacZ fusion that contained the promoters, ribosome binding site, and initiation codon of ftsQ. A correctly oriented clone, pMS207, and a clone containing the ftsQ1p2p insert in the opposite orientation, pMS209, were chosen for further analysis. Both inserts were sequenced to ensure that no errors were introduced during the PCR reaction.
For ftsQ regulation in E. coli, the plasmids pMS207 and pMS209 were transformed into E. coli strain MC4100 (Silhavy et al., 1984, supra), and the transformants were grown overnight in LB containing 100 mg/L ampicillin at 30° C. with aeration. For rck regulation, S. typhimurium strains BA1105 (rck::MudJ) and BA1305 (rck::MudJ sdiA) were grown overnight in LB containing 100 mg/L kanamycin at 30° C. with aeration. […]

[5] = tested on: rck::MudJ fusion in S. typhimurium (sdiA+ and sdiA-); assay: SdiA regulated rck::MudJ fusion, galactosidase; assay type: cell-based; conditions: addition of AI-2 from E. coli or S. typhimurium, 2 h
Protocol: For ftsQ regulation in E. coli, the plasmids pMS207 and pMS209 were transformed into E. coli strain MC4100 (Silhavy et al., 1984, supra), and the transformants were grown overnight in LB containing 100 mg/L ampicillin at 30° C. with aeration. For rck regulation, S. typhimurium strains BA1105 (rck::MudJ) and BA1305 (rck::MudJ sdiA) were grown overnight in LB containing 100 mg/L kanamycin at 30° C. with aeration. The overnight cultures were diluted 20-fold into fresh medium and grown for an additional 4.5 h. At this time, each culture was divided into five identical aliquots and 10% (v/v) of one of the following was added to each aliquot: LB, 0.4 M NaCl, […] osmotic shock fluids from S. typhimurium LT2, E. coli 0157 or E. coli strain DH5 (negative control). The osmotic shock fluids were prepared as described above, following pre-growth of the S. typhimurium LT2 and E. coli in LB containing 0.5% glucose for 6 h. The cell suspensions were incubated at 30° C. for 2 h, after which standard-galactosidase reactions were performed on the samples (Miller, A Short Course in Bacterial Genetics, Cold Spring Harbor Laboratory Press, 1992).

[6] = Stability of the signaling activity (acid, base, heat, storage); assay type: physicochemical

## O=C(O)CCC(=O)C(=O)O [-ketoglutarate]
[1]
  activity of candidates for the signal in inducing luminescence: None of these compounds has activity

## C[C@@H](O)CC(=O)N[C@H]1CCOC1=O [AI-1, N-(3-hydroxybutanoyl)-L-homoserine lactone, reference compound]
[2]
  lowest concentration the assay was sensitive to: 100 nM
[3]
  light production in response to exogenous autoinducer: not

## CC(=O)C(=O)C(O)CO (stereo not drawn) [AI-2, 4,5-dihydroxy-2,3-pentanedione]
[1]; dialyzed LuxS- cell extract + SAM + LuxS protein, 60 min, material with MW<5000
  stimulation in light production by AI-2 produced in vitro: over 500 fold
[4]
  change of galactosidase activity of ftsQ1p2p-lacZ fusion: did not change
[5]
  change in galactosidase production of rck::MudJ: No change
[6]
  acid and base stability of the activity: acid stable and base labile
  heat resistance of the activity: heat resistant to about 80 but not 100 °C
[6]; listed as signaling activity
  acid and base stability of the activity: acid stabile and base labile
  heat resistance of the activity: heat resistant to 80 but not 100 °C
[6]; listed as signaling compound
  acid and base stability of the activity: acid stable and base labile
  heat resistance of the activity: heat resistant to 80 °C but not 100 °C
[3]
  light production in response to exogenous autoinducer: stimulated to produce light

## CC(=O)O [acetate]
[1]
  activity of candidates for the signal in inducing luminescence: None of these compounds has activity

## N[C@H]1CCOC1=O [homoserine lactone]
[1]
  activity of candidates for the signal in inducing luminescence: None of these compounds has activity
